How the values were obtained:
[1] = test system: TNF-alpha secretion in human whole blood; test: Inhibition of TNF-alpha secretion in human whole blood (IFN-gamma primed, L18-MDP stimulated); format: cell-based; conditions: Homo sapiens, 16 h, L18-MDP 100 ng/mL, read-out: Human Whole Blood TNFα IC50
Description: Materials: Assay medium consisted of RPMI 1640 medium (catalogue number: 11875119) and 10% heat inactivated FBS (Cytvia). U-PLEX Biomarker Assay (cat #K15067L-4) to detect levels of TNF-alpha was purchased from Meso Scale Discovery. Heparinized whole blood from healthy donors/volunteers was obtained through Research Blood Components, LLC.
Test compounds were prepared into a 10 mM DMSO solution and serially diluted into 9 points using a 3-fold dilution in a 96 well plate. A 10× working stock solution of recombinant human IFN-gamma (final concentration of 10 ng/mL) was prepared in assay medium and used to prepare a 10× solution of test compound. 20 μL of 10×IFN-gamma and test compound (or DMSO control) was added to a 96-well plate. 160 μL of heparinized whole blood obtained from healthy donors was dispensed into individual wells of the 96-well plate and placed on a plate shaker (150 rpm) and incubated for 60 min at 37° C. in a CO2 incubator. Subsequently, 20 μL of L18-MDP (final concentration of 100 ng/mL) was added to the appropriate wells and further incubated for 16 hours on a plate shaker (150 rpm) at 37° C. in a CO2 incubator. The final concentration of DMSO was 0.05% (v/v) in all wells. After incubation, 100 μL of DPBS was added per well, mixed by shaking at 500 rpm for 2 minutes, followed by centrifugation (400×g for 10 minutes) and collection of supernatants. TNF-alpha in supernatants was measured using MSD immunoassay (MesoScale Discovery). 4-parametric curve fit was used to determine the test compound concentration that results in 50% reduction of TNF-alpha concentration in supernatant relative to assay controls.

[2] = test system: RIPK2 activity in vivo, as measured by plasma levels of cytokine MCP-1; test: In vivo inhibition of monocyte chemoattractant protein-1 (MCP-1), acute mouse MDP challenge; conditions: female C57BL/6 mice, plasma 2 h after MDP
Description: The compounds of the disclosure were tested for their ability to inhibit RTPK2 activity in vivo, as measured by plasma levels of cytokine MCP-1. C57BL/6 mice were dosed orally with the compounds of the disclosure one hour prior to intra-peritoneal administration of muramyldipeptide (MDP), a NOD2 agonist. Intraperitoneal (i.p.) injection of MDP in mice induces an increase in circulating levels of proinflammatory cytokines, such as MCP-1, in a RIPK2-dependent manner. This acute mouse MDP challenge represents a screening model to measure the ability of compounds to inhibit RIPK2 in vivo.
Materials: Female C57BL/6 mice (6-13 weeks of age) were purchased from the Jackson Laboratory. All mice were maintained under a 12 h light/dark cycle and had food and water ad libitum. Muramyldipeptide (MDP) was purchased from Invivogen (catalog No. tlrl-mdp; lot No. 6231-43-02). Mouse MCP-1 was measured using U-PLEX MSD kit (Meso Scale Discovery (MSD), catalog No. K15069M-2). Carboxymethyl cellulose was purchased from Sigma-Aldrich (catalog No. C5678-500 ml), Tween80 was purchased from Sigma-Aldrich (catalog No. P1754-500 ml), (Hydroxypropyl)-β-cyclodextrin (HP-β-CD) was purchased from Sigma-Aldrich (catalog No. C332607-500G), PBS was purchased from Thermo Fisher Scientific (catalog No. 14190250).
The vehicle was prepared by mixing carboxymethyl cellulose and Tween80 to achieve a final solution of 0.5% CMC or 20% HP-β-CD in water. The compounds of the disclosure were weighed out and mixed with the vehicle to yield final working suspensions. Working suspensions of the compounds were prepared once at the beginning of the study, and vortexed and sonicated prior to each dosing to ensure the material was in fine suspension.
Mice were acclimated to the facility for at least 5 days before the start of the study. On day 0, mice were weighed and assigned to groups in a balanced manner to achieve similar average weight across the groups at the start of the study. On day 0, hour −1 (1 hours before MDP injection), all mice were given a single p.o. dose with vehicle or a compound of the disclosure. At hour 0 (1 hour after dosing), mice were injected intraperitoneally (IP) with 8 mpk MDP in PBS. Two hours after MDP injection (3 hours after drug treatment), blood was collected via cardiac puncture for all mice into EDTA microtainer collection tubes. Plasma was prepared from blood and stored at −80° C.
MCP-1 levels in mouse plasma were measured using U-PLEX MSD kit according to manufacturer's instructions. A single analysis was performed for each sample. Concentrations were determined relative to a standard calibration curve, and total analyte levels in pg/mL.
The MCP-1 data in pg/mL were normalized in GraphPad Prism 9.2 using the normalize function and entering the 0% and 100% inhibition control groups for the study. 0% inhibition was defined as mean MCP-1 pg/mL in MDP vehicle group, and 100% inhibition was defined as mean MCP-1 pg/mL in the unstimulated vehicle group.

[3] = single p.o. dose 10 mg/kg 1 h before i.p. MDP 8 mpk
[4] = single p.o. dose 3 mg/kg 1 h before i.p. MDP 8 mpk

| IC50 [1] [nM] | Structure (SMILES) | % MCP-1 inhibition [2, 3] [%] | % MCP-1 inhibition [2, 4] |
| --- | --- | --- | --- |
| 5 | CC(C)(C)n1cc(NC(=O)Cc2ccc(Oc3ccnc4ccc(S(C)(=O)=O)cc34)cc2F)cn1 [Compound 38, N-(1-(tert-butyl)-1H-pyrazol-4-yl)-2-(2-fluoro-4-((6-(methylsulfonyl)quinolin-4-yl)oxy)phenyl)acetamide] | 99 | – |
| 3 | Cc1cc(CC(=O)Nc2cnn(C(C)(C)C)c2)ccc1Oc1ccnc2ccc(OC3CCNCC3)cc12 [Compound 83, N-(1-(tert-butyl)-1H-pyrazol-4-yl)-2-(3-methyl-4-((6-(piperidin-4-yloxy)quinolin-4-yl)oxy)phenyl) acetamide] | – | no effect |
| 9 | Cc1cc(CC(=O)Nc2cnn(C(C)(C)C)c2)ccc1Oc1ccnc2ccc(S(C)(=O)=O)cc12 [Compound 86, N-(1-(tert-butyl)-1H-pyrazol-4-yl)-2-(3-methyl-4-((6-(methylsulfonyl)quinolin-4-yl)oxy)phenyl)acetamide] | – | 101% |
| 6 | Cc1c(Oc2ccnc3ccc(S(C)(=O)=O)cc23)ccc(CC(=O)Nc2cnn(C(C)(C)C)c2)c1F [Compound 91, N-(1-(tert-butyl)-1H-pyrazol-4-yl)-2-(2-fluoro-3-methyl-4-((6-(methylsulfonyl)quinolin-4-yl)oxy)phenyl)acetamide] | – | 99% |
| 8 | CCS(=O)(=O)c1ccc2nccc(Oc3ccc(CC(=O)Nc4cnn(C(C)(C)C)c4)cc3C)c2c1 [Compound 99, N-(1-(tert-butyl)-1H-pyrazol-4-yl)-2-(4-((6-(ethylsulfonyl)quinolin-4-yl)oxy)-3-methylphenyl)acetamide] | – | 111% |
| 14 | Cc1cc(CC(=O)Nc2cnn(C(C)(C)C)c2)c(F)cc1Oc1ccnc2ccc(S(C)(=O)=O)cc12 [Compound 113, N-(1-(tert-butyl)-1H-pyrazol-4-yl)-2-(2-fluoro-5-methyl-4-((6-(methylsulfonyl)quinolin-4-yl)oxy)phenyl)acetamide] | 82 | – |
| 4 | Cc1cc(CC(=O)Nc2cnn(C(C)(C)C)c2)c(F)cc1Oc1ccnc2ccc(C(N)=O)cc12 [Compound 359, 4-(4-(2-((1-(tert-butyl)-1H-pyrazol-4-yl)amino)-2-oxoethyl)-5-fluoro-2-methyl-phenoxy) quinoline-6-carboxamide] | 88 | – |
| 7 | CNC(=O)c1ccc2nccc(Oc3cc(F)c(CC(=O)Nc4cnn(C(C)(C)C)c4)cc3C)c2c1 [Compound 360, 4-(4-(2-((1-(tert-butyl)-1H-pyrazol-4-yl)amino)-2-oxoethyl)-5-fluoro-2-methylphenoxy)-N-methylquinoline-6-carboxamide] | 93 | – |
| – | Cc1cc(CC(=O)Nc2cnn(C(C)(C)C)c2)cc(C)c1Oc1ccnc2cc(F)c(C(N)=O)cc12 [Compound 581, 4-(4-(2-((1-(tert-butyl)-1H-pyrazol-4-yl)amino)-2-oxoethyl)-2,6-dimethylphenoxy)-7-fluoroquinoline-6-carboxamide] | – | 75% |
